Assay results published in patent US20030139431A1 (priority 2001, published 2003).
Structures can show the parent of a compound that is named as a salt.

How the values were obtained:
[1] = target: T1, rNPFF1 (Rattus norvegicus, UniProt Q9EP86); experiment: Binding affinity at cloned recombinant rat NPFF1 receptor
T1 construct: expressed in transfected cells

[2] = target: T2, hNPFF2 (Homo sapiens, UniProt Q9Y5X5); experiment: Binding affinity at cloned recombinant human NPFF2 receptor
T2 construct: expressed in transfected cells
T2 sequence (Q9Y5X5 103-522): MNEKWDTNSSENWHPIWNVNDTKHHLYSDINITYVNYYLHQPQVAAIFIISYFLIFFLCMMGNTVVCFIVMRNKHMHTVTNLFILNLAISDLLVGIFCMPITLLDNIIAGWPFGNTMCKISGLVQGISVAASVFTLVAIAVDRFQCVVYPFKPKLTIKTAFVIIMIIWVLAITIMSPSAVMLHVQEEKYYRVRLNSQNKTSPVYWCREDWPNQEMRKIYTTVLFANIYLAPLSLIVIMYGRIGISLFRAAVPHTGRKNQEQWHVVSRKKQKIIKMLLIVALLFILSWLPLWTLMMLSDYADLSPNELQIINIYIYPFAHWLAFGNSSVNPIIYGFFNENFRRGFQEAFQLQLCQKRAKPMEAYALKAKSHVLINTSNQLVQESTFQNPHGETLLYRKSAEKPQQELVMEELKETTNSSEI

[3] = target: T3, rNPFF2 (Rattus norvegicus, UniProt Q9EQD2); experiment: Functional assay (agonist potency, intrinsic activity) at cloned rat NPFF2 receptor; type: cell-based; details: for rNPFF2 IA (intrinsic activity): percent of maximum response elicited by neuropeptide FF, rat NPFF2; for EC50: recombinant rat NPFF2
T3 construct: expressed in transfected cells
T3 sequence (Q9EQD2 whole entry): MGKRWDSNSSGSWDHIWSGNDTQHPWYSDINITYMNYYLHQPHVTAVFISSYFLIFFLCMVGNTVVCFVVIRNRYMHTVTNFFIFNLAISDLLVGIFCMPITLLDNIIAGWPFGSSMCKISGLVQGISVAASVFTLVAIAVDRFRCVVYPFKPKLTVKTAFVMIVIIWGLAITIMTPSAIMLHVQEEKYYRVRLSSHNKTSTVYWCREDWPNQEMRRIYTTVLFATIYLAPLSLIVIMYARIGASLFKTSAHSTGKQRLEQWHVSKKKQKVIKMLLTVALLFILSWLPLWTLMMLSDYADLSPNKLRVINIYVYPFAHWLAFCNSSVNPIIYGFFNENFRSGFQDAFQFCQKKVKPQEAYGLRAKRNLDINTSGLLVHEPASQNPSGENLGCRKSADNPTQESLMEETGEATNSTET
Experimental: (§1) Intrinsic activity of a compound is measured as the percent of maximum response.

[4] = target: T3, rNPFF2; experiment: Binding affinity at cloned recombinant rat NPFF2 receptor
[5] = target: T4, hNPFF1 (Homo sapiens, UniProt Q9GZQ6); experiment: Functional assay (agonist potency, intrinsic activity) at cloned human NPFF1 receptor; type: cell-based; details: for hNPFF1 IA (intrinsic activity): percent of maximum response elicited by neuropeptide FF, human NPFF1; for EC50: recombinant human NPFF1
T4 construct: expressed in transfected cells
T4 sequence (Q9GZQ6 whole entry): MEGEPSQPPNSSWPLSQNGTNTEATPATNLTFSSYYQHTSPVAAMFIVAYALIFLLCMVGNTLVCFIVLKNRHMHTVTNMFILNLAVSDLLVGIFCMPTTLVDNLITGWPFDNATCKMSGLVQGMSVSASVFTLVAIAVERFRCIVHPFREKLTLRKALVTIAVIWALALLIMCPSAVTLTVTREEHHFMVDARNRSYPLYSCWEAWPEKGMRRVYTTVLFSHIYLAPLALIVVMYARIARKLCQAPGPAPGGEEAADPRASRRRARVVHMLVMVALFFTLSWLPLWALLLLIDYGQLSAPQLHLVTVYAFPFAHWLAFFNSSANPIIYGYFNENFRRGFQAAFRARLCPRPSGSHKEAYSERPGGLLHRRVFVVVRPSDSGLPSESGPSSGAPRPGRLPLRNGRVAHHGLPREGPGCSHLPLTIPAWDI
Experimental: as §1

[6] = target: T2, hNPFF2; experiment: Functional assay (agonist potency, intrinsic activity) at cloned human NPFF2 receptor; type: cell-based; details: for hNPFF2 IA (intrinsic activity): percent of maximum response elicited by neuropeptide FF, human NPFF2; for EC50: recombinant human NPFF2
Experimental: as §1

[7] = target: T1, rNPFF1; experiment: Functional assay (agonist potency, intrinsic activity) at cloned rat NPFF1 receptor; type: cell-based; details: for rNPFF1 IA (intrinsic activity): percent of maximum response elicited by neuropeptide FF, rat NPFF1; for EC50: recombinant rat NPFF1
Experimental: as §1

[8] = target: T4, hNPFF1; experiment: Binding affinity at cloned recombinant human NPFF1 receptor
[9] = system: distention induced contractions of the rat bladder; experiment: Distension-induced rhythmic contraction (DIRC) model, micturition reflex in anesthetized rats; type: in vivo; details: i.v.; for duration of inhibition of bladder activity (figure legend): dose not printed in legend
Experimental: The effects of compounds on the micturition reflex were assessed in the “distension-induced rhythmic contraction” (DIRC) model (also called “volume-induced rhythmic contraction” model) in rats, as described in previous publications (36, 38, 40). This model is widely considered to be predictive for the actions of drugs to treat human urge incontinence (also referred to as detrusor instability or unstable bladder). Examples of drugs that are active in this model which also are used therapeutically in humans include oxybutynin and baclofen (40); imipramine and nortriptyline (37); and nifedipine and terodiline (38).
Female Sprague Dawley rats weighing approximately 300 g were anesthetized with subcutaneous urethane (1.2 g/kg) The trachea was cannulated with PE240 tubing to provide a clear airway throughout the experiment. A midline abdominal incision was made and the left and right ureters were isolated. The ureters were ligated distally (to prevent escape of fluids from the bladder) and cannulated proximally with PE10 tubing. The incision was closed using 4-0 silk sutures, leaving the PE10 lines routed to the exterior for the elimination of urine. The bladder was canulated via the transurethral route using PE50 tubing inserted 2.5 cm beyond the urethral opening. This cannula was secured to the tail using tape and connected to a pressure transducer. To prevent leakage from the bladder, the cannula was tied tightly to the exterior urethral opening using 4-0 silk.
To initiate the micturition reflex, the bladder was first emptied by applying pressure to the lower abdomen, and then filled with normal saline in 100 μL increments (maximum=2 ml) until spontaneous bladder contractions occurred (typically 20-40 mmHg) at a rate of one contraction every 2 to 3 minutes. Once a regular rhythm was established, vehicle (saline) or test compounds were administered i.v. to examine their effects on bladder activity. The effect of a compound which inhibited the micturition reflex was expressed as its “disappearance time”, defined as the time between successive bladder contractions in the presence of the test compound minus the time between contractions before compound administration.

T1 sequence (Q9EP86 whole entry): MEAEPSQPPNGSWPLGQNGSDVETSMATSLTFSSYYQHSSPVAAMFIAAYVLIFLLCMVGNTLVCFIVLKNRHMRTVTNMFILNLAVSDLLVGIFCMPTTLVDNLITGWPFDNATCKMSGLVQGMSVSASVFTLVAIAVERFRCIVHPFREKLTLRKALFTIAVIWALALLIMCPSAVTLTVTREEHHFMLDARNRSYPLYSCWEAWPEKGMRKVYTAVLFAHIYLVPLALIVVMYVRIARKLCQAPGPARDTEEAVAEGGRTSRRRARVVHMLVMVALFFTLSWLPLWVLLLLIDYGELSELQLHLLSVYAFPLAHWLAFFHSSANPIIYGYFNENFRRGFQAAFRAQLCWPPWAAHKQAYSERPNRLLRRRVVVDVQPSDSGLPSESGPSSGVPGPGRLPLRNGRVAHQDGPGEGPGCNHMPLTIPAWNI

| Compound | Ki [1] [nM] | Ki [2] [nM] | rNPFF2 IA (intrinsic activity) [3] [% NPFF] | EC50 [3] [nM] | Ki [4] [nM] | hNPFF1 IA (intrinsic activity) [5] | EC50 [5] [nM] | hNPFF2 IA (intrinsic activity) [6] | EC50 [6] [nM] | rNPFF1 IA (intrinsic activity) [7] | EC50 [7] [nM] | Ki [8] [nM] | disappearance time ([9]; 3 mg/kg) [min] | inhibition of distention induced contractions of the rat bladder ([9]; 3 mg/kg) | duration of inhibition of bladder activity (figure legend) [9] [min] | disappearance time ([9]; 1 mg/kg) [min] | inhibition of distention induced contractions of the rat bladder ([9]; 1 mg/kg) | melting point |
| --- | --- | --- | --- | --- | --- | --- | --- | --- | --- | --- | --- | --- | --- | --- | --- | --- | --- | --- |
| Cc1ccc2c(C)cc(NC(=N)N)nc2c1 [Compound 4006, N-(4,7-dimethyl-2-quinolinyl)guanidine] | 7 | 91 | 32 | 269 | 185 | Inactive | > 10000 | Inactive | > 10000 | Inactive | > 10000 | 13 | 12 | complete inhibition | 12 | – | – | – |
| Cc1cc(NC(=N)N)nc2ccc(Cl)cc12 [Compound 4005, N-(6-chloro-4-methyl-2-quinolinyl)guanidine] | 25 | 123 | 61 | 389 | 282 | – | – | – | – | Inactive | > 10000 | 24 | – | – | 35 | 35 | complete inhibition | – |
| Cc1nc(NC(=N)N)nc2cc(C(C)(C)C)ccc12 [Compound 1022, N-[7-(tert-butyl)-4-methyl-2-quinazolinyl]guanidine] | 126 | – | 81 | 190 | 602 | – | – | – | – | 19% NPFF | 3160 | – | – | – | – | – | – | 195 to 198 °C (dec.) |
| Cc1nc(NC(=N)N)nc2cc3c(cc12)CCC3 [Compound 1038, N-(4-methyl-7,8-dihydro-6H-cyclopenta[g]quinazolin-2-yl)guanidine] | 95 | – | 74 | 48 | 602 | – | – | – | – | Inactive | > 10000 | – | – | – | – | – | – | 295 to 298 °C (dec.) |
| Cc1cc2nc(NC(=N)N)nc(C)c2cc1O (as salt: salt) [Compound 1017, N-(6-hydroxy-4,7-dimethyl-2-quinazolinyl)guanidine] | – | – | – | – | – | – | – | – | – | – | – | – | – | – | – | – | – | 246 to 248 °C (dec.) |
| Cc1nc(NC(=N)N)nc2cc(OCc3ccccc3)ccc12 (as salt: salt) [Compound 1006, N-[7-(benzyloxy)-4-methyl-2-quinazolinyl]guanidine] | – | – | – | – | – | – | – | – | – | – | – | – | – | – | – | – | – | 215 to 217 °C (dec.) |
| CCCCCc1ccc2nc(NC(=N)N)nc(C)c2c1 [Compound 2001, N-(4-methyl-6-pentyl-2-quinazolinyl)guanidine] | 8 | 376 | 103 | 97 | 221 | Inactive | – | 84% NPFF | 625 | 71% NPFF | 242 | 50 | – | – | – | – | – | – |
| CCCCCCc1ccc2nc(NC(=N)N)cc(C)c2c1 [Compound 5003, N-(6-hexyl-4-methyl-2-quinolinyl)guanidine] | 532 | 1170 | 57 | 9990 | 4420 | Inactive | > 10000 | 45% NPFF | 3160 | 27% NPFF | 440 | 152 | – | – | – | – | – | – |
